Laboratory results: patent publication US6303630A, “Diarylsulfone non-nucleoside reverse transcriptase inhibitors of human immunodeficiency virus” (University of the Sciences in Philadelphia, priority 2000, dated 2001)

Each compound was assayed on HIV-1 (assay: NCI in vitro anti-HIV drug screen: XTT-formazan assay, protection of T4 lymphocytes (CEM) from HIV-1 cytopathic effects). Settings: Human immunodeficiency virus 1, CCRF-CEM, 144 h; HIV-1 infected CEM cells, 6 days, XTT; approximate values; read-out: EC50 (50% effective concentration against HIV cytopathic effects).
Type: cell-based, human immunodeficiency virus (HIV-1)
Procedure: Compounds of the present invention were evaluated for anti-HIV efficacy by the National Cancer Institute's (NCI) In Vitro Anti AIDS Drug Discovery Program.
(§1) The NCI procedure is fully described, for example, in a bulletin provided by the National Institutes of Health, National Cancer Institute, Bethesda, Md. 20892, all of which is incorporated herein by reference. As related in the NCI bulletin, the procedure is based on O. W. Weislow et al., "New soluble-formazan assay for HIV-1 cytopathic effects: application to high flux screening of synthetic and natural products for AIDS-antiviral activity", J. Natl. Cancer Inst. 81:577-586 (1989), and is used to test for compounds active against human immunodeficiency virus (HIV), and is designed to detect compounds active at any stage of the virus reproductive cycle. As further related in the NCI bulletin, the assay includes killing of T4 lymphocytes by HIV. Amounts of HIV are added to cells, with a minimum of two cycles of virus reproduction found to be necessary to obtain the required cell killing. Compounds that interact with virions, cells, or virus gene-products to interfere with viral activities will protect cells from cytolysis. All were compared with a positive (e.g., AZT-treated) control evaluation at the same time under identical conditions. The procedure is set forth as follows:
(§2) A candidate compound is first dissolved in a suitable solvent, preferably dimethyl sulfoxide, then diluted 1:100 in cell culture medium before preparing serial half-log10 dilutions. T4 lymphocytes (CEM cell line) are then added and after a brief interval HIV-1 is added, resulting in a 1:200 final dilution of the compound. Uninfected cells with the compound serve as a toxicity control, and infected and uninfected without the compound serve as basic controls. Cultures are then incubated at 37° in a 5% carbon dioxide atmosphere for 6 days. The tetrazolium salt, XTT, is added to all wells, and cultures are incubated to allow formazan color development by viable cells. Individual wells are analyzed spectrophotometrically to quantitate formazan product, and in addition are viewed microscopically for detection of viable cells and confirmation of protective activity. Drug-treated virus-infected cells are compared with drug-treated noninfected cells and with other appropriate controls (untreated infected and untreated noninfected cells, drug-containing wells without cells, etc.) on the same plate. Data are reviewed in comparison with other tests performed at the same time and a determination as to activity is made.
Work on O=[N+]([O-])c1ccccc1S(=O)(=O)c1cccc2c1NCCC2 [Compound 46, 8-(2-nitrophenylsulfonyl)-1,2,3,4-tetrahydroquinoline] yielded an EC50 of 1.32 µM.

Same assay, conditions: Human immunodeficiency virus 1, CCRF-CEM, dose 2.00 × 10^-4 Molar; read-out: Percent of Protection
O=[N+]([O-])c1ccccc1S(=O)(=O)c1cccc2c1NCCC2 [Compound 46, 8-(2-nitrophenylsulfonyl)-1,2,3,4-tetrahydroquinoline] showed an inhibition at 200 µM of -0.28%.

Same assay, conditions: Human immunodeficiency virus 1, CCRF-CEM, dose 2.00 × 10^-5 Molar; read-out: Percent of Protection
O=[N+]([O-])c1ccccc1S(=O)(=O)c1cccc2c1NCCC2 [Compound 46, 8-(2-nitrophenylsulfonyl)-1,2,3,4-tetrahydroquinoline] showed an inhibition at 20 µM of 76.4%.

Same assay, conditions: Human immunodeficiency virus 1, CCRF-CEM, dose 2.00 × 10^-6 Molar; read-out: Percent of Protection
O=[N+]([O-])c1ccccc1S(=O)(=O)c1cccc2c1NCCC2 [Compound 46, 8-(2-nitrophenylsulfonyl)-1,2,3,4-tetrahydroquinoline] was tested, and the inhibition at 2 µM was 69.4%.

Same assay, conditions: Human immunodeficiency virus 1, CCRF-CEM, dose 2.00 × 10^-7 Molar; read-out: Percent of Protection
O=[N+]([O-])c1ccccc1S(=O)(=O)c1cccc2c1NCCC2 [Compound 46, 8-(2-nitrophenylsulfonyl)-1,2,3,4-tetrahydroquinoline] showed an inhibition at 0.2 µM of 6.11%.

Same assay, conditions: Human immunodeficiency virus 1, CCRF-CEM, dose 6.32 × 10^-5 Molar; read-out: Percent of Protection
With O=[N+]([O-])c1ccccc1S(=O)(=O)c1cccc2c1NCCC2 [Compound 46, 8-(2-nitrophenylsulfonyl)-1,2,3,4-tetrahydroquinoline] the inhibition at 63.2 µM was 33.6%.

Same assay, conditions: Human immunodeficiency virus 1, CCRF-CEM, dose 6.33 × 10^-6 Molar; read-out: Percent of Protection
With O=[N+]([O-])c1ccccc1S(=O)(=O)c1cccc2c1NCCC2 [Compound 46, 8-(2-nitrophenylsulfonyl)-1,2,3,4-tetrahydroquinoline] the inhibition at 6.33 µM was 89.1%.

Same assay, conditions: Human immunodeficiency virus 1, CCRF-CEM, dose 6.34 × 10^-7 Molar; read-out: Percent of Protection
For O=[N+]([O-])c1ccccc1S(=O)(=O)c1cccc2c1NCCC2 [Compound 46, 8-(2-nitrophenylsulfonyl)-1,2,3,4-tetrahydroquinoline], the inhibition at 0.634 µM was 16.3%.

Same assay, conditions: Human immunodeficiency virus 1, CCRF-CEM, dose 6.35 × 10^-8 Molar; read-out: Percent of Protection
O=[N+]([O-])c1ccccc1S(=O)(=O)c1cccc2c1NCCC2 [Compound 46, 8-(2-nitrophenylsulfonyl)-1,2,3,4-tetrahydroquinoline] gave an inhibition at 0.0635 µM of -1.64%.

Same assay, conditions: Human immunodeficiency virus 1, Lymphocyte, dose 2.00 × 10^-4 Molar; read-out: Percent of Control, Infected
O=[N+]([O-])c1ccccc1S(=O)(=O)c1cccc2c1NCCC2 [Compound 46, 8-(2-nitrophenylsulfonyl)-1,2,3,4-tetrahydroquinoline] gave an activity at 200 µM of 1.73%.

Same assay, conditions: Human immunodeficiency virus 1, Lymphocyte, dose 2.00 × 10^-5 Molar; read-out: Percent of Control, Infected
O=[N+]([O-])c1ccccc1S(=O)(=O)c1cccc2c1NCCC2 [Compound 46, 8-(2-nitrophenylsulfonyl)-1,2,3,4-tetrahydroquinoline] showed an activity at 20 µM of 76.8%.

Same assay, conditions: Human immunodeficiency virus 1, Lymphocyte, dose 2.00 × 10^-6 Molar; read-out: Percent of Control, Infected
O=[N+]([O-])c1ccccc1S(=O)(=O)c1cccc2c1NCCC2 [Compound 46, 8-(2-nitrophenylsulfonyl)-1,2,3,4-tetrahydroquinoline] gave an activity at 2 µM of 70%.

Same assay, conditions: Human immunodeficiency virus 1, Lymphocyte, dose 2.00 × 10^-7 Molar; read-out: Percent of Control, Infected
O=[N+]([O-])c1ccccc1S(=O)(=O)c1cccc2c1NCCC2 [Compound 46, 8-(2-nitrophenylsulfonyl)-1,2,3,4-tetrahydroquinoline] showed an activity at 0.2 µM of 7.99%.

Same assay, conditions: Human immunodeficiency virus 1, Lymphocyte, dose 6.32 × 10^-5 Molar; read-out: Percent of Control, Infected
For O=[N+]([O-])c1ccccc1S(=O)(=O)c1cccc2c1NCCC2 [Compound 46, 8-(2-nitrophenylsulfonyl)-1,2,3,4-tetrahydroquinoline], the activity at 63.2 µM was 35%.

Same assay, conditions: Human immunodeficiency virus 1, Lymphocyte, dose 6.33 × 10^-6 Molar; read-out: Percent of Control, Infected
In the case of O=[N+]([O-])c1ccccc1S(=O)(=O)c1cccc2c1NCCC2 [Compound 46, 8-(2-nitrophenylsulfonyl)-1,2,3,4-tetrahydroquinoline], the activity at 6.33 µM is reported as 89.3%.

Same assay, conditions: Human immunodeficiency virus 1, Lymphocyte, dose 6.34 × 10^-7 Molar; read-out: Percent of Control, Infected
Compound O=[N+]([O-])c1ccccc1S(=O)(=O)c1cccc2c1NCCC2 [Compound 46, 8-(2-nitrophenylsulfonyl)-1,2,3,4-tetrahydroquinoline] has an activity at 0.634 µM of 17.9%.

Same assay, conditions: Human immunodeficiency virus 1, Lymphocyte, dose 6.35 × 10^-8 Molar; read-out: Percent of Control, Infected
Work on O=[N+]([O-])c1ccccc1S(=O)(=O)c1cccc2c1NCCC2 [Compound 46, 8-(2-nitrophenylsulfonyl)-1,2,3,4-tetrahydroquinoline] yielded an activity at 0.0635 µM of 0.39%.

Same assay, conditions: IC50/EC50
With O=[N+]([O-])c1ccccc1S(=O)(=O)c1cccc2c1NCCC2 [Compound 46, 8-(2-nitrophenylsulfonyl)-1,2,3,4-tetrahydroquinoline] the “TI50 (IC/EC), Therapeutic Index” value was 3.78 × 10^+1.

What follows are compounds tested on T4 lymphocytes (CEM cell line) (assay: Cell growth / toxicity control in uninfected T4 lymphocytes (CEM), XTT-formazan). Settings: Homo sapiens, CCRF-CEM, 144 h, uninfected CEM cells, 6 days, XTT; approximate values; read-out: IC50 (50% inhibitory concentration for cell growth).
Type: cell-based
Description: as §1, §2
Compound O=[N+]([O-])c1ccccc1S(=O)(=O)c1cccc2c1NCCC2 [Compound 46, 8-(2-nitrophenylsulfonyl)-1,2,3,4-tetrahydroquinoline] has an IC50 of 49.9 µM.

Same assay, conditions: Homo sapiens, CCRF-CEM, dose 2.00 × 10^-4 Molar; read-out: Percent of Control, Uninfected
O=[N+]([O-])c1ccccc1S(=O)(=O)c1cccc2c1NCCC2 [Compound 46, 8-(2-nitrophenylsulfonyl)-1,2,3,4-tetrahydroquinoline] showed an activity at 200 µM of 1.77%.

Same assay, conditions: Homo sapiens, CCRF-CEM, dose 2.00 × 10^-5 Molar; read-out: Percent of Control, Uninfected
O=[N+]([O-])c1ccccc1S(=O)(=O)c1cccc2c1NCCC2 [Compound 46, 8-(2-nitrophenylsulfonyl)-1,2,3,4-tetrahydroquinoline] showed an activity at 20 µM of 95.8%.

Same assay, conditions: Homo sapiens, CCRF-CEM, dose 2.00 × 10^-6 Molar; read-out: Percent of Control, Uninfected
Compound O=[N+]([O-])c1ccccc1S(=O)(=O)c1cccc2c1NCCC2 [Compound 46, 8-(2-nitrophenylsulfonyl)-1,2,3,4-tetrahydroquinoline] has an activity at 2 µM of 95.4%.

Same assay, conditions: Homo sapiens, CCRF-CEM, dose 2.00 × 10^-7 Molar; read-out: Percent of Control, Uninfected
With O=[N+]([O-])c1ccccc1S(=O)(=O)c1cccc2c1NCCC2 [Compound 46, 8-(2-nitrophenylsulfonyl)-1,2,3,4-tetrahydroquinoline] the activity at 0.2 µM was 98.9%.

Same assay, conditions: Homo sapiens, CCRF-CEM, dose 6.32 × 10^-5 Molar; read-out: Percent of Control, Uninfected
Compound O=[N+]([O-])c1ccccc1S(=O)(=O)c1cccc2c1NCCC2 [Compound 46, 8-(2-nitrophenylsulfonyl)-1,2,3,4-tetrahydroquinoline] has an activity at 63.2 µM of 38.1%.

Same assay, conditions: Homo sapiens, CCRF-CEM, dose 6.33 × 10^-6 Molar; read-out: Percent of Control, Uninfected
With O=[N+]([O-])c1ccccc1S(=O)(=O)c1cccc2c1NCCC2 [Compound 46, 8-(2-nitrophenylsulfonyl)-1,2,3,4-tetrahydroquinoline] the activity at 6.33 µM was 94%.

Same assay, conditions: Homo sapiens, CCRF-CEM, dose 6.34 × 10^-7 Molar; read-out: Percent of Control, Uninfected
Work on O=[N+]([O-])c1ccccc1S(=O)(=O)c1cccc2c1NCCC2 [Compound 46, 8-(2-nitrophenylsulfonyl)-1,2,3,4-tetrahydroquinoline] yielded an activity at 0.634 µM of 100%.

Same assay, conditions: Homo sapiens, CCRF-CEM, dose 6.35 × 10^-8 Molar; read-out: Percent of Control, Uninfected
In the case of O=[N+]([O-])c1ccccc1S(=O)(=O)c1cccc2c1NCCC2 [Compound 46, 8-(2-nitrophenylsulfonyl)-1,2,3,4-tetrahydroquinoline], the activity at 0.0635 µM is reported as 98.9%.
